The values that follow are results of earlier work, collected in US7605152B2, “17-hydroxy-4-aza-androstan-3-ones as androgen receptor modulators” (priority 2002, dated 2009).

The conditions of series [1]: after 7 years of treatment.
For series [2] the following is noted: after a median of 22 months of treatment.

For `NCCCC(O)(P(=O)([O-])O)P(=O)(O)O.O.O.O.[Na+]` [alendronate, (4-amino-1-hydroxybutylidene)-bis-phosphonate monosodium trihydrate], the “increase in spinal BMD” value in series [1] was 11%.
As for “hPTH(1-34): human parathyroid hormone 1-34 fragment (SVSEIQLMHNLGKHLNSMERVEWLRKKLQDVHNF; Parathyroid hormone; UniProt P01270 32-65, looked up, fragment)”, in series [2], the “reduction in nonvertebral fractures” value is given as 54% and the “reduction in spine fractures” value is ≥ 65%.
